From PubChem BioAssay (NCI)
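Results reflect a 48-hour exposure of cells in 96-well plates to compound at five concentrations. GI50 is the concentration that inhibits growth by half. TGI: concentration producing complete growth inhibition.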

Columns and labels:
Experiment in all cases: NCI-60 cell line screen, 48 h
HCT-116 colon = test system: HCT-116 colon
SK-MEL-5 melanoma = test system: SK-MEL-5 melanoma
K-562 leukemia = test system: K-562 leukemia
SK-OV-3 ovarian = test system: SK-OV-3 ovarian
A549 NSCLC = test system: A549 NSCLC
SNB-75 CNS = test system: SNB-75 CNS
TK-10 renal = test system: TK-10 renal
ACHN renal = test system: ACHN renal
CCRF-CEM leukemia = test system: CCRF-CEM leukemia
MOLT-4 leukemia = test system: MOLT-4 leukemia

Row | Compound | TGI (HCT-116 colon) [µM] | TGI (SK-MEL-5 melanoma) [µM] | TGI (K-562 leukemia) [µM] | TGI (SK-OV-3 ovarian) [µM] | TGI (A549 NSCLC) [µM] | TGI (SNB-75 CNS) [µM] | TGI (TK-10 renal) [µM] | TGI (ACHN renal) [µM] | TGI (CCRF-CEM leukemia) [µM] | TGI (MOLT-4 leukemia) [µM] | GI50 (HCT-116 colon) [µM] | GI50 (SK-MEL-5 melanoma) [µM] | GI50 (K-562 leukemia) [µM] | GI50 (SK-OV-3 ovarian) [µM] | GI50 (A549 NSCLC) [µM] | GI50 (SNB-75 CNS) [µM] | GI50 (TK-10 renal) [µM] | GI50 (ACHN renal) [µM] | GI50 (CCRF-CEM leukemia) [µM] | GI50 (MOLT-4 leukemia) [µM]
1 | CCC(C)[C@H](NC(=O)N[C@H](C)c1ccccc1)C(=O)OC (stereo not given in full) | > 100 | > 100 | > 100 | > 100 | > 100 | > 100 | > 100 | > 100 | > 100 | > 100 | – | – | – | – | – | – | – | – | – | –
2 | COC(=O)c1cc(C)ccc1CC(Cc1cccc(C)c1)C(=O)OC (stereo not given) | > 100 | > 100 | > 100 | 27.1 | > 100 | > 100 | > 100 | > 100 | > 100 | > 100 | – | – | – | – | – | – | – | – | – | –
3 | COC(=O)Cc1ccc2c(c1)Sc1ccc(CC(=O)OC)cc1N2C | > 100 | 26.3 | > 100 | > 100 | > 90.3 | > 93.4 | > 100 | > 100 | > 95.7 | > 100 | – | – | – | – | – | – | – | – | – | –
4 | CCN1CC(C)Cn2c(=O)[nH]c3cc(Br)cc1c32 (stereo not given) | > 100 | > 100 | > 100 | > 100 | > 100 | 48.3 | > 100 | > 100 | > 100 | 81.9 | – | – | – | – | – | – | – | – | – | –
5 | Cc1c(C)c(C)c(-n2[nH]c(=O)n(C)c2=O)c(C)c1C | > 100 | > 100 | > 100 | > 100 | > 100 | > 100 | > 100 | > 100 | > 100 | > 100 | – | – | – | – | – | – | – | – | – | –
6 | CC(C)CCCC(C)[C@H]1CCC2[C@@H]3CCC4Cc5nc6c(nc5C[C@]4(C)C3CC[C@@]21C)CC1CC[C@@H]2C(C[C@@H](O)[C@@]3(C)C2C[C@@H]2OC4(CCC(C)CO4)C(C)[C@@H]23)[C@@]1(C)C6 (stereo not given in full) | > 100 | > 100 | > 100 | > 100 | > 100 | > 100 | > 100 | > 100 | > 100 | > 100 | – | – | – | – | – | – | – | – | – | –
7 | CCCCOC(=O)CNC(=O)OCCCCC#CC#CCCCCOC(=O)NCC(=O)OCCCC | > 100 | > 100 | > 100 | > 100 | > 100 | > 100 | > 100 | > 100 | > 100 | > 100 | – | – | – | – | – | – | – | – | – | –
8 | O=c1[nH]nc(Cc2ccccc2)n1/N=C/c1c[nH]c2ccccc12 | > 100 | > 100 | > 100 | > 100 | > 100 | 51.3 | > 100 | > 100 | > 100 | > 100 | – | – | – | – | – | – | – | – | – | –
9 | CCN(CC)Cc1nc2sc3c(c2c(=O)n1-c1ccccc1)CCCC3 | 39.4 | 31.7 | > 100 | 83.3 | 55 | 47.4 | 30.9 | 55.2 | > 100 | 56.7 | – | – | – | – | – | – | – | – | – | –
10 | COC1=CC(=O)c2ccccc2C1(CCC=C(C)C)C1=NC(C)(C)CO1 (stereo not given) | > 100 | > 100 | > 100 | > 100 | > 100 | > 100 | > 100 | > 100 | > 100 | > 100 | – | – | – | – | – | – | – | – | – | –
11 | CC(C)(CN)CN | > 100 | > 100 | > 100 | > 100 | > 100 | > 100 | > 100 | > 100 | > 100 | > 100 | – | – | – | – | – | – | – | – | – | –
12 | CCNC(=O)Nc1cccc(C)n1 | > 100 | > 100 | > 100 | > 100 | > 100 | > 100 | > 100 | > 100 | > 100 | > 100 | – | – | – | – | – | – | – | – | – | –
13 | COc1ccc2c(c1)OC(c1cccnc1)C(c1ccccc1)C2=O (stereo not given) | > 100 | > 100 | > 100 | > 100 | > 100 | > 100 | > 100 | > 100 | > 100 | > 100 | – | – | – | – | – | – | – | – | – | –
14 | CN(C)c1ccc(/C=N/Nc2nc3ccccc3c(=O)n2-c2ccccc2)cc1 | > 100 | > 100 | > 100 | > 100 | > 100 | 57.5 | > 100 | > 100 | > 100 | > 100 | – | – | – | – | – | – | – | – | – | –
15 | Cc1ccc(F)cc1NC(=O)O/N=C(\Cl)C(C)C | 35.3 | 24.1 | 5.72 | 36.9 | 38.2 | 35.7 | 15 | 4.41 | > 39.5 | 4.83 | – | – | – | – | – | – | – | – | – | –
16 | N/N=C(\C(=O)Nc1c(Cl)cc([N+](=O)[O-])cc1Cl)C(c1cnc2ccc([N+](=O)[O-])cc2n1)[N+](=O)[O-] (stereo not given) | > 100 | > 100 | > 100 | > 100 | > 100 | > 100 | > 100 | > 100 | > 100 | > 100 | – | – | – | – | – | – | – | – | – | –
17 | CCOC(C[Se]CC(OCC)OCC)OCC | > 100 | 29.6 | > 100 | > 100 | > 100 | 38.8 | > 100 | > 100 | 95.9 | > 100 | – | – | – | – | – | – | – | – | – | –
18 | CC(=O)O[C@H]1CC[C@@]2(C)C(=CC[C@@H]3[C@@H]2CC[C@]2(C)C(c4cccnc4)=CC[C@@H]32)C1 | > 100 | 10.1 | > 100 | 95.8 | > 100 | 15.6 | > 100 | 43.9 | > 100 | > 100 | 4.49 | 2.89 | 4.04 | 5.83 | 10.4 | 2.6 | 29.8 | 4.88 | 16.7 | 6.3
19 | CCC1C(=O)C[C@H]2[C@@H]3C(O)CC4=CC(=O)CC[C@]4(C)[C@H]3CC[C@]12C (stereo not given in full) | > 50 | > 50 | > 50 | > 50 | > 50 | > 50 | > 50 | > 50 | > 50 | > 50 | – | – | – | – | – | – | – | – | – | –
